In patent US20240409585A1, “MACROCYCLIC IMMUNOMODULATORS” (priority 2021, published 2024):
Bridge positions count the residues as written; N and C are the ends. Square brackets hold non-standard residues; d marks the D form. Peptide text beside a SMILES is read from it. * marks the point of attachment. ξ: configuration not given here. Phe(3-CF3) = N[C@@H](Cc1cccc(C(F)(F)F)c1)C(=O)O; Phe(4-COOH) = N[C@@H](Cc1ccc(C(=O)O)cc1)C(=O)O; Bip = N[C@@H](Cc1ccc(-c2ccccc2)cc1)C(=O)O; Phe(4-CN) = N#Cc1ccc(C[C@H](N)C(=O)O)cc1; Phe(2-Cl) = N[C@@H](Cc1ccccc1Cl)C(=O)O; Phe(3-Me) = Cc1cccc(C[C@H](N)C(=O)O)c1; Val(3-OH) = CC(C)(O)[C@H](N)C(=O)O; 3Pal = N[C@@H](Cc1cccnc1)C(=O)O; 4Pal = N[C@@H](Cc1ccncc1)C(=O)O; Cha = N[C@@H](CC1CCCCC1)C(=O)O; Cit = NC(=O)NCCC[C@H](N)C(=O)O; Thr(3ξ) = CC(O)[C@H](N)C(=O)O; Dap(Me) = CNC[C@H](N)C(=O)O; dPip = O=C(O)[C@H]1CCCCN1; Carboxymethyl = O=C(O)C*; NMeA = CN[C@@H](C)C(=O)O; Dab = NCC[C@H](N)C(=O)O; Dap = NC[C@H](N)C(=O)O; Piv = CC(C)(C)C(=O)*

molecular target: T1, PE-labeled human PD-L1-Ig binding to Jurkat cell line over-expressing human PD-1 (Jurkat-PD-1) (Homo sapiens, UniProt Q15116); experiment: Jurkat-PD-1 Cell Binding High-Content Screening Assay (CBA): Method 1; details: Jurkat-hPD-1 cells, PE-labeled PD-L1-Ig 20 nM final; read-out: Jurkat HPDL1 PD1 IC50 (uM) (Method 1)
T1 construct: expressed in transfected cells; host or cells: Jurkat
T1 sequence (Q15116 25-288): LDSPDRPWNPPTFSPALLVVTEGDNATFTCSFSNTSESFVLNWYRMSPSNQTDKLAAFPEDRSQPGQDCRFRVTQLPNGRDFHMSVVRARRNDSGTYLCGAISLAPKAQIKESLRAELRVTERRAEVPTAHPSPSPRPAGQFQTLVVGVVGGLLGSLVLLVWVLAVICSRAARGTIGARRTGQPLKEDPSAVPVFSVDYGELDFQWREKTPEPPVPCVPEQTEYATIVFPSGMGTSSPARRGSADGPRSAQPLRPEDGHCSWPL

| Structure (SMILES) | IC50 [µM] |
| --- | --- |
| Cc1cccc(C[C@@H]2NC(=O)[C@H](CC(=O)O)NC(=O)[C@H](Cc3ccc(OCC(=O)O)cc3)NC(=O)[C@H](C(C)O)NC(=O)CSC[C@@H](C(=O)N[C@@H](CCNC(=O)C(C)(C)C)C(N)=O)NC(=O)[C@H](Cc3cnc[nH]3)NC(=O)[C@H](C(C)(C)O)NC(=O)[C@H](CC3CCCCC3)NC(=O)[C@H](CCN)NC(=O)[C@@H](CC(C)C)NC(=O)[C@H](C)N(C)C(=O)[C@H](Cc3ccc(OCC(=O)O)cc3)NC(=O)[C@H](Cc3ccc(-c4ccccc4)cc3)NC(=O)[C@H](Cc3ccc(C(=O)O)cc3)NC2=O)c1 (stereo partly drawn) [Compound 2164] ({CH2CO}-[Thr(3ξ)]Y(Carboxymethyl)D[Phe(3-Me)][Phe(4-COOH)][Bip]Y(Carboxymethyl)[NMeA][dL][Dab][Cha][Val(3-OH)]HC[Dab](Piv)-NH2; thioether N-14) | 0.05 |
| CC(C)C[C@@H]1NC(=O)[C@H](Cc2c[nH]c3ccccc23)NC(=O)[C@H](CC(=O)O)NC(=O)[C@H](Cc2ccc(O)cc2)NC(=O)[C@H](Cc2ccccc2)NC(=O)CSC[C@@H](C(=O)N[C@@H](C)C(N)=O)NC(=O)[C@H](CO)NC(=O)[C@H](C(C)C)NC(=O)[C@H](CC(C)C)NC(=O)[C@H](CC(N)=O)NC(=O)[C@@H](C)NC(=O)[C@H](C)N(C)C(=O)[C@H](C(C)C)NC(=O)[C@H](Cc2ccc(-c3ccccc3)cc2)NC1=O [Compound 1727] ({CH2CO}-FYDWL[Bip]V[NMeA][dA]NLVSCA-NH2; thioether N-14) | 0.01 |
| Cc1cccc(C[C@@H]2NC(=O)[C@H](CC(=O)O)NC(=O)[C@H](Cc3ccc(OCC(=O)O)cc3)NC(=O)[C@H](CC(N)=O)NC(=O)CSC[C@@H](C(N)=O)NC(=O)[C@H]([C@@H](C)O)NC(=O)[C@H](C(C)C)NC(=O)[C@H](CC3CCCCC3)NC(=O)[C@H](CCN)NC(=O)[C@@H](CC(C)C)NC(=O)[C@H](C)N(C)C(=O)[C@H](Cc3ccc(OCC(=O)O)cc3)NC(=O)[C@H](Cc3ccc(-c4ccccc4)cc3)NC(=O)[C@H](Cc3ccc(OCC(=O)O)cc3)NC2=O)c1 [Compound 1666] ({CH2CO}-NY(Carboxymethyl)D[Phe(3-Me)]Y(Carboxymethyl)[Bip]Y(Carboxymethyl)[NMeA][dL][Dab][Cha]VTC-NH2; thioether N-14) | 0.09 |
| CC(C)C[C@@H]1NC(=O)[C@H](Cc2c[nH]c3ccccc23)NC(=O)[C@H](CC(=O)O)NC(=O)[C@H](Cc2ccc(O)cc2)NC(=O)[C@H](Cc2ccncc2)NC(=O)CSC[C@@H](C(=O)NCC(N)=O)NC(=O)[C@H](CO)NC(=O)[C@H](C(C)C)NC(=O)[C@H](CC(C)C)NC(=O)[C@H](CC(N)=O)NC(=O)[C@@H](C)NC(=O)[C@H](C)N(C)C(=O)[C@H](C(C)C)NC(=O)[C@H](Cc2ccc(-c3ccccc3)cc2)NC1=O [Compound 1722] ({CH2CO}-[4Pal]YDWL[Bip]V[NMeA][dA]NLVSCG-NH2; thioether N-14) | 0.01 |
| CC(C)C[C@@H]1NC(=O)[C@H](CCN)NC(=O)[C@@H](CC(C)C)NC(=O)[C@H]2CCCCN2C(=O)[C@H](C(C)C)NC(=O)[C@H](Cc2ccc(-c3ccccc3)cc2)NC(=O)[C@H](C(C)C)NC(=O)[C@H](Cc2c[nH]c3ccccc23)NC(=O)[C@H](CC(=O)O)NC(=O)[C@H](Cc2ccc(O)cc2)NC(=O)[C@H](CC(N)=O)NC(=O)CSC[C@@H](C(=O)N[C@@H](C)C(N)=O)NC(=O)[C@H]([C@@H](C)O)NC(=O)[C@H](C(C)C)NC1=O [Compound 1268] ({CH2CO}-NYDWV[Bip]V[dPip][dL][Dab]LVTCA-NH2; thioether N-14) | 0.11 |
| CC(C)C[C@@H]1NC(=O)[C@H](Cc2c[nH]c3ccccc23)NC(=O)[C@H](CC(=O)O)NC(=O)[C@H](Cc2ccncc2)NC(=O)[C@H](Cc2ccc(OCC(=O)O)cc2)NC(=O)CSC[C@@H](C(=O)N[C@@H](C)C(N)=O)NC(=O)[C@H](CO)NC(=O)[C@H](C(C)C)NC(=O)[C@H](CC(C)C)NC(=O)[C@H](CC(N)=O)NC(=O)[C@@H](CC(C)C)NC(=O)[C@H](C)N(C)C(=O)[C@H](C(C)C)NC(=O)[C@H](Cc2ccc(-c3ccccc3)cc2)NC1=O [Compound 1591] ({CH2CO}-Y(Carboxymethyl)[4Pal]DWL[Bip]V[NMeA][dL]NLVSCA-NH2; thioether N-14) | 0.03 |
| CC(C)C[C@@H]1NC(=O)[C@H](Cc2c[nH]c3ccccc23)NC(=O)[C@H](CC(=O)O)NC(=O)[C@H](Cc2ccc(C(=O)O)cc2)NC(=O)[C@H](Cc2ccc(OCC(=O)O)cc2)NC(=O)CSC[C@@H](C(N)=O)NC(=O)[C@H](CO)NC(=O)[C@H](C(C)C)NC(=O)[C@H](CC2CCCCC2)NC(=O)[C@H](Cc2cnc[nH]2)NC(=O)[C@@H](CC(C)C)NC(=O)[C@H](C)N(C)C(=O)[C@H](C(C)C)NC(=O)[C@H](Cc2ccc(-c3ccccc3)cc2)NC1=O [Compound 2252] ({CH2CO}-Y(Carboxymethyl)[Phe(4-COOH)]DWL[Bip]V[NMeA][dL]H[Cha]VSC-NH2; thioether N-14) | 0.08 |
| CC(C)C[C@@H]1NC(=O)[C@H](Cc2c[nH]c3ccccc23)NC(=O)[C@H](CC(=O)O)NC(=O)[C@H](Cc2ccc(O)cc2)NC(=O)[C@H](Cc2ccccc2)NC(=O)CSC[C@@H](C(=O)N[C@@H](C)C(N)=O)NC(=O)[C@H]([C@@H](C)O)NC(=O)[C@H](C(C)C)NC(=O)[C@H](CC(C)C)NC(=O)[C@H](CC(N)=O)NC(=O)[C@@H](C)NC(=O)[C@H](C)N(C)C(=O)[C@H](C(C)C)NC(=O)[C@H](Cc2ccc(-c3ccccc3)cc2)NC1=O [Compound 1744] ({CH2CO}-FYDWL[Bip]V[NMeA][dA]NLVTCA-NH2; thioether N-14) | 0.02 |
| CC(C)C[C@@H]1NC(=O)[C@H](CCN)NC(=O)[C@@H](CC(C)C)NC(=O)[C@H](C)N(C)C(=O)[C@H](Cc2cnc[nH]2)NC(=O)[C@H](Cc2ccc(-c3ccccc3)cc2)NC(=O)[C@H](C(C)C)NC(=O)[C@H](Cc2c[nH]c3ccccc23)NC(=O)[C@H](CC(=O)O)NC(=O)[C@H](Cc2cccc(C(F)(F)F)c2)NC(=O)[C@H](CN)NC(=O)CSC[C@@H](C(=O)N[C@@H](C)C(N)=O)NC(=O)[C@H]([C@@H](C)O)NC(=O)[C@H](C(C)C)NC1=O [Compound 1434] ({CH2CO}-[Dap][Phe(3-CF3)]DWV[Bip]H[NMeA][dL][Dab]LVTCA-NH2; thioether N-14) | 0.05 |
| CC(C)C[C@@H]1NC(=O)[C@H](CCN)NC(=O)[C@@H](CC(C)C)NC(=O)[C@H](C)N(C)C(=O)[C@H](CCC(N)=O)NC(=O)[C@H](Cc2ccc(-c3ccccc3)cc2)NC(=O)[C@H](C(C)C)NC(=O)[C@H](Cc2c[nH]c3ccccc23)NC(=O)[C@H](CC(=O)O)NC(=O)[C@H](Cc2ccc(O)cc2)NC(=O)[C@H](CC(N)=O)NC(=O)CSC[C@@H](C(=O)N[C@@H](C)C(N)=O)NC(=O)[C@H]([C@@H](C)O)NC(=O)[C@H](C(C)C)NC1=O [Compound 1301] ({CH2CO}-NYDWV[Bip]Q[NMeA][dL][Dab]LVTCA-NH2; thioether N-14) | 0.06 |
| CC(C)C[C@@H]1NC(=O)[C@H](CCN)NC(=O)[C@@H](CC(C)C)NC(=O)[C@H](C)N(C)C(=O)[C@H](CCCNC(N)=O)NC(=O)[C@H](Cc2ccc(-c3ccccc3)cc2)NC(=O)[C@H](C(C)C)NC(=O)[C@H](Cc2c[nH]c3ccccc23)NC(=O)[C@H](CC(=O)O)NC(=O)[C@H](Cc2ccc(C#N)cc2)NC(=O)[C@H](Cc2ccncc2)NC(=O)CSC[C@@H](C(=O)N[C@@H](C)C(N)=O)NC(=O)[C@H]([C@@H](C)O)NC(=O)[C@H](C(C)C)NC1=O [Compound 1402] ({CH2CO}-[4Pal][Phe(4-CN)]DWV[Bip][Cit][NMeA][dL][Dab]LVTCA-NH2; thioether N-14) | 0.02 |
| CC(C)C[C@@H]1NC(=O)[C@H](CCN)NC(=O)[C@@H](CC(C)C)NC(=O)[C@H](C)N(C)C(=O)[C@H](C(C)C)NC(=O)[C@H](Cc2ccc(-c3ccccc3)cc2)NC(=O)[C@H](C(C)C)NC(=O)[C@H](Cc2c[nH]c3ccccc23)NC(=O)[C@H](CC(=O)O)NC(=O)[C@H](Cc2ccc(C#N)cc2)NC(=O)[C@H](CN)NC(=O)CSC[C@@H](C(=O)N[C@@H](C)C(N)=O)NC(=O)[C@H]([C@@H](C)O)NC(=O)[C@H](C(C)C)NC1=O [Compound 1435] ({CH2CO}-[Dap][Phe(4-CN)]DWV[Bip]V[NMeA][dL][Dab]LVTCA-NH2; thioether N-14) | 0.05 |
| CC(C)C[C@@H]1NC(=O)[C@H](CCCNC(=N)N)NC(=O)[C@@H](CC(C)C)NC(=O)[C@H](C)N(C)C(=O)[C@H](CCCNC(=N)N)NC(=O)[C@H](Cc2ccc(-c3ccccc3)cc2)NC(=O)[C@H](C(C)C)NC(=O)[C@H](Cc2ccccc2Cl)NC(=O)[C@H](CC(=O)O)NC(=O)[C@H](Cc2ccc(O)cc2)NC(=O)[C@H](CC(N)=O)NC(=O)CSC[C@@H](C(=O)N[C@@H](C)C(N)=O)NC(=O)[C@H]([C@@H](C)O)NC(=O)[C@H](C(C)C)NC1=O [Compound 1193] ({CH2CO}-NYD[Phe(2-Cl)]V[Bip]R[NMeA][dL]RLVTCA-NH2; thioether N-14) | 0.35 |
| CNC[C@@H]1NC(=O)CSC[C@@H](C(=O)N[C@@H](C)C(N)=O)NC(=O)[C@H](C(C)O)NC(=O)[C@H](C(C)C)NC(=O)[C@H](CC(C)C)NC(=O)[C@H](CCN)NC(=O)[C@@H](CC(C)C)NC(=O)[C@H](C)N(C)C(=O)[C@H](C(C)C)NC(=O)[C@H](Cc2ccc(-c3ccccc3)cc2)NC(=O)[C@H](C(C)C)NC(=O)[C@H](Cc2c[nH]c3ccccc23)NC(=O)[C@H](CC(=O)O)NC(=O)[C@H](Cc2ccc(O)cc2)NC1=O (stereo partly drawn) [Compound 2041] ({CH2CO}-[Dap(Me)]YDWV[Bip]V[NMeA][dL][Dab]LV[Thr(3ξ)]CA-NH2; thioether N-14) | 0.02 |
| CC(C)C[C@@H]1NC(=O)[C@H](CCN)NC(=O)[C@@H](CC(C)C)NC(=O)[C@H](C)N(C)C(=O)[C@H](CCCNC(=N)N)NC(=O)[C@H](Cc2ccc(-c3ccccc3)cc2)NC(=O)[C@H](C(C)C)NC(=O)[C@H](Cc2c[nH]c3ccccc23)NC(=O)[C@H](CC(=O)O)NC(=O)[C@H](Cc2cnc[nH]2)NC(=O)[C@H](Cc2cccnc2)NC(=O)CSC[C@@H](C(=O)N[C@@H](C)C(N)=O)NC(=O)[C@H]([C@@H](C)O)NC(=O)[C@H](C(C)C)NC1=O [Compound 1157] ({CH2CO}-[3Pal]HDWV[Bip]R[NMeA][dL][Dab]LVTCA-NH2; thioether N-14) | 0.11 |
